Measured values from patent publication US20090163586A1, “Bis-(Sulfonylamino) Derivatives in Therapy 205” (AstraZeneca AB, priority 2007, published 2009).

The molecules below were run against T1, human mPGES-1 (Homo sapiens, UniProt O14684) (assay: Microsomal prostaglandin E synthase biochemical assay). Settings: microsome preparation containing human mPGES-1; PGH2 10.8 μM, GSH 2.5 mM, pH 6.8; PGE2 by HTRF; average of at least n=2.
T1 sequence (O14684 1-152): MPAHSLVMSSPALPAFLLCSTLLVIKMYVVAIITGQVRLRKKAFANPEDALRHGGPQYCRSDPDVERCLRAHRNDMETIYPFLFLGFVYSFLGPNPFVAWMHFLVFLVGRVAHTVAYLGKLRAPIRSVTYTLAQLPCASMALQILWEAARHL
Procedure, shortened: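 Human mPGES-1 microsomes at 2 μg/mL were pre-incubated 15 min with compound (60 μM to 0.002 μM) in 50 mM potassium phosphate pH 6.8 with 2.5 mM GSH. The reaction was started with 10.8 μM PGH2 and stopped after 1 minute with acidic ferric chloride/citrate. PGE2 was quantified by HTRF; IC50 is the mean of at least 2 runs.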

Compared with NS(=O)(=O)c1cccc(F)c1NS(=O)(=O)/C=C/c1ccc(-c2ccccc2)cc1 [Example 59, 3-Fluoro-2-[[(E)-2-(4-phenylphenyl)ethenyl]sulfonylamino]benzenesulfonamide], NS(=O)(=O)c1ccc(F)cc1NS(=O)(=O)/C=C/c1ccc(-c2ccccc2)cc1 [Example 53, 4-Fluoro-2-[[(E)-2-(4-phenylphenyl)ethenyl]sulfonylamino]benzenesulfonamide] is 14-fold lower in IC50: 2300 nM for the first, 160 nM for the second. The second is the more potent here.

Compared with NS(=O)(=O)c1c(F)cccc1NS(=O)(=O)/C=C/c1ccc(Cl)c(Cl)c1 [Example 25, 2-[[(E)-2-(3,4-Dichlorophenyl)ethenyl]sulfonylamino]-6-fluoro-benzenesulfonamide], NS(=O)(=O)c1c(F)cccc1NS(=O)(=O)/C=C/c1ccc2ccccc2c1 [Example 88, 2-Fluoro-6-[[(E)-2-naphthalen-2-ylethenyl]sulfonylamino]benzenesulfonamide] is 17-fold higher in IC50: 77 nM for the first, 1300 nM for the second.

First: NS(=O)(=O)c1ccccc1NS(=O)(=O)c1ccc(Cl)s1 [Example 159, 5-Chloro-N-(2-sulfamoylphenyl)thiophene-2-sulfonamide]
Second: NS(=O)(=O)c1ccccc1NS(=O)(=O)c1ccc2c(c1)CCC2 [Example 122, N-(2-Sulfamoylphenyl)-2,3-dihydro-1H-indene-5-sulfonamide]
The IC50 of the first is 1.9-fold lower: 3500 nM for the first, 6700 nM for the second. The first is the more potent here.

First: NS(=O)(=O)c1ccccc1NS(=O)(=O)CCc1ccc(OC(F)(F)C(F)F)cc1 [Example 223, 2-(2-(4-(1,1,2,2-tetrafluoroethoxy)phenyl)ethylsulfonamido)benzenesulfonamide]
Second: NS(=O)(=O)c1ccccc1NS(=O)(=O)/C=C/c1ccc(OC(F)(F)C(F)F)cc1 [Example 216, (E)-2-(2-(4-(1,1,2,2-tetrafluoroethoxy)phenyl)vinylsulfonamido)benzenesulfonamide]
The IC50 of the first is 3.2-fold higher: 420 nM for the first, 130 nM for the second. The second is the more potent here.

Compared with NS(=O)(=O)c1c(F)cccc1NS(=O)(=O)/C=C/c1ccc(OC(F)F)cc1 [Example 43, 2-[[(E)-2-[4-(Difluoromethoxy)phenyl]ethenyl]sulfonylamino]-6-fluoro-benzenesulfonamide], NS(=O)(=O)c1ccccc1NS(=O)(=O)/C=C/c1ccc(C(F)(F)F)cc1 [Example 105, 2-[[(E)-2-[4-(Trifluoromethyl)phenyl]ethenyl]sulfonylamino]benzenesulfonamide] is 6.1-fold higher in IC50: 110 nM for the first, 670 nM for the second.

Cc1nnc(COc2ccc(NS(=O)(=O)CCc3ccc(Cl)cc3)c(S(N)(=O)=O)c2)o1 [Example 47, 2-[2-(4-Chlorophenyl)ethylsulfonylamino]-5-[(5-methyl-1,3,4-oxadiazol-2-yl)methoxy]benzenesulfonamide] and Cc1ccc(NS(=O)(=O)CCc2ccc(Cl)cc2)c(S(N)(=O)=O)c1 [Example 45, 2-[2-(4-Chloro-phenyl)-ethanesulfonylamino]-5-methylbenzenesulfonamide] are within 1.5-fold of each other in IC50: 1600 nM for the first, 1300 nM for the second.

COc1cc(Cl)ccc1CCS(=O)(=O)Nc1ccc(C#N)cc1S(N)(=O)=O [Example 182, 2-(2-(4-Chloro-2-methoxyphenyl)ethylsulfonamido)-5-cyanobenzenesulfonamide] and NS(=O)(=O)c1cc(CO)ccc1NS(=O)(=O)CCc1ccc(Cl)cc1 [Example 44, 2-[2-(4-Chlorophenyl)ethylsulfonylamino]-5-(hydroxymethyl)benzenesulfonamide] are within 1.5-fold of each other in IC50: 520 nM for the first, 750 nM for the second.

Compared with NS(=O)(=O)c1ccccc1NS(=O)(=O)/C=C/c1c(F)cccc1F [Example 103, 2-[[(E)-2-(2,6-Difluorophenyl)ethenyl]sulfonylamino]benzenesulfonamide], COc1cc(Cl)ccc1/C=C/S(=O)(=O)Nc1ccccc1S(N)(=O)=O [Example 49, 2-[2-(4-Chloro-2-methoxy-phenyl)-ethenesulfonylamino]-benzenesulfonamide] is 260-fold lower in IC50: 9200 nM for the first, 36 nM for the second.

COc1ccc(Br)cc1/C=C/S(=O)(=O)Nc1cc(F)ccc1S(N)(=O)=O [Example 26, 2-[[(E)-2-(5-Bromo-2-methoxy-phenyl)ethenyl]sulfonylamino]-4-fluoro-benzenesulfonamide] and COc1ccccc1/C=C/S(=O)(=O)Nc1cc(F)ccc1S(N)(=O)=O [Example 58, 4-Fluoro-2-[[(E)-2-(2-methoxyphenyl)ethenyl]sulfonylamino]benzenesulfonamide] are within 1.5-fold of each other in IC50: 420 nM for the first, 300 nM for the second.

Compared with NS(=O)(=O)c1ccccc1NS(=O)(=O)/C=C/c1ccc(C2=CCCC2)cc1 [Example 207, (E)-2-(2-(4-Cyclopentenylphenyl)vinylsulfonamido)benzenesulfonamide], NS(=O)(=O)c1ccccc1NS(=O)(=O)/C=C/c1ccc(-c2ccc(C(F)(F)F)cc2)cc1 [Example 218, (E)-2-(2-(4′-(trifluoromethyl)biphenyl-4-yl)vinylsulfonamido)benzenesulfonamide] is 1.9-fold higher in IC50: 97 nM for the first, 180 nM for the second.

First: NS(=O)(=O)c1ccccc1NS(=O)(=O)c1ccc(C2CCCCC2)cc1 [Example 128, 2-[(4-Cyclohexylphenyl)sulfonylamino]benzenesulfonamide]
Second: NS(=O)(=O)c1ccccc1NS(=O)(=O)c1cccc(-c2ccc(Cl)c(Cl)c2)c1 [Example 174, 2-[[3-(3,4-Dichlorophenyl)phenyl]sulfonylamino]benzenesulfonamide]
The IC50 of the first is 7.7-fold higher: 1700 nM for the first, 220 nM for the second.

Going from NS(=O)(=O)c1ccccc1NS(=O)(=O)c1cccc(-c2cncc(Cl)c2)c1 [Example 168, 2-[[3-(5-Chloropyridin-3-yl)phenyl]sulfonylamino]benzenesulfonamide] to CN(C)c1ccc(-c2cccc(S(=O)(=O)Nc3ccccc3S(N)(=O)=O)c2)cn1 [Example 170, 3-(6-Dimethylaminopyridin-3-yl)-N-(2-sulfamoylphenyl)benzenesulfonamide], the IC50 falls from 630 nM to 290 nM (2.2-fold).

First: NS(=O)(=O)c1ccc(F)cc1NS(=O)(=O)CCc1ccc2ccccc2c1 [Example 111, 4-Fluoro-2-(2-naphthalen-2-ylethylsulfonylamino)benzenesulfonamide]
Second: NS(=O)(=O)c1ccccc1NS(=O)(=O)CCc1ccccc1 [Example 74, 2-(Phenethylsulfonylamino)benzenesulfonamide]
The IC50 of the first is 13-fold lower: 760 nM for the first, 9800 nM for the second. The first is the more potent here.

Going from NS(=O)(=O)c1ccccc1NS(=O)(=O)CCc1ccc(C#Cc2ccc(C(F)(F)F)cc2)nc1 [Example 240, 2-(2-(6-((4-(Trifluoromethyl)phenyl)ethynyl)pyridin-3-yl)ethylsulfonamido)benzenesulfonamide] to NS(=O)(=O)c1ccccc1NS(=O)(=O)c1ccc(Oc2ncc(C(F)(F)F)cc2Cl)cc1 [Example 125, 2-[[4-[3-Chloro-5-(trifluoromethyl)pyridin-2-yl]oxyphenyl]sulfonylamino]benzenesulfonamide], the IC50 rises from 31 nM to 7200 nM (230-fold). The first is the more potent here.

C[C@@](O)(C(=O)Nc1ccc(S(=O)(=O)Nc2ccccc2S(N)(=O)=O)cc1Cl)C(F)(F)F [Example 158, (2R)—N-[2-Chloro-4-[(2-sulfamoylphenyl)sulfamoyl]phenyl]-3,3,3-trifluoro-2-hydroxy-2-methyl-propanamide] and COc1cccc(-c2cccc(S(=O)(=O)Nc3ccccc3S(N)(=O)=O)c2)c1 [Example 135, 3-(3-Methoxyphenyl)-N-(2-sulfamoylphenyl)benzenesulfonamide] are within 1.5-fold of each other in IC50: 8700 nM for the first, 8300 nM for the second.

Going from NS(=O)(=O)c1cccc(F)c1NS(=O)(=O)/C=C/c1cccc(Cl)c1 [Example 64, 2-[[(E)-2-(3-Chlorophenyl)ethenyl]sulfonylamino]-3-fluoro-benzenesulfonamide] to NS(=O)(=O)c1cc(F)ccc1NS(=O)(=O)/C=C/c1cccc(Cl)c1 [Example 51, 2-[[(E)-2-(3-Chlorophenyl)ethenyl]sulfonylamino]-5-fluoro-benzenesulfonamide], the IC50 rises from 3100 nM to 4900 nM (1.6-fold). The first is the more potent here.

Going from Cn1c(-c2cccc(S(=O)(=O)Nc3ccccc3S(N)(=O)=O)c2)cc2ccccc21 [Example 140, 3-(1-Methylindol-2-yl)-N-(2-sulfamoylphenyl)benzenesulfonamide] to CNS(=O)(=O)c1ccccc1NS(=O)(=O)c1cccc(-c2ccc(Cl)c(Cl)c2)c1 [Example 239, 2-[[3-(3,4-Dichlorophenyl)phenyl]sulfonylamino]-N-methyl-benzenesulfonamide], the IC50 rises from 2900 nM to 6060 nM (2.1-fold).

CC(Cc1ccc(Cl)cc1)S(=O)(=O)Nc1cc(F)ccc1S(N)(=O)=O (stereo not shown) [Example 10, 2-[1-(4-Chlorophenyl)propan-2-ylsulfonylamino]-4-fluoro-benzenesulfonamide] and C/C(=C\c1ccc(Cl)cc1)S(=O)(=O)Nc1cc(F)ccc1S(N)(=O)=O [Example 11, 2-[[(E)-1-(4-chlorophenyl)prop-1-en-2-yl]sulfonylamino]-4-fluoro-benzenesulfonamide] are within 1.5-fold of each other in IC50: 450 nM for the first, 590 nM for the second.

Compared with NS(=O)(=O)c1cc(-c2ccccc2)ccc1NS(=O)(=O)c1cccc(-c2ccc(Cl)c(Cl)c2)c1 [Example 145, 2-[[3-(3,4-Dichlorophenyl)phenyl]sulfonylamino]-5-phenyl-benzenesulfonamide], NS(=O)(=O)c1cc(F)ccc1NS(=O)(=O)/C=C/c1ccc(-c2ccco2)cc1 [Example 35, 5-Fluoro-2-[[(E)-2-[4-(2-furyl)phenyl]ethenyl]sulfonylamino]benzenesulfonamide] is 24-fold lower in IC50: 4100 nM for the first, 170 nM for the second. The second is the more potent here.

Compared with CC(C)(O)C#Cc1ccc(/C=C/S(=O)(=O)Nc2ccccc2S(N)(=O)=O)cc1 [Example 209, (E)-2-(2-(4-(3-Hydroxy-3-methylbut-1-ynyl)phenyl)vinylsulfonamido)benzenesulfonamide], COc1cc(NS(=O)(=O)c2cccc(Cl)c2Cl)c(S(N)(=O)=O)cc1F [Example 230, 2,3-Dichloro-N-(4-fluoro-5-methoxy-2-sulfamoylphenyl)benzenesulfonamide] is 28-fold higher in IC50: 220 nM for the first, 6100 nM for the second. The first is the more potent here.
